Test results from PubChem BioAssay AID1963828 (Molecular Pharmacology Branch, DTP, NCI, 2024).

System: 991263-137-R1-J2-PDC complex spheroid viability
Assay: Anticancer human tumor 991263-137-R1-J2-PDC patient-derived colon adenocarcinoma cell line growth inhibition [POLQ]
Conditions: for IC50: curve of first compound; for viability, T/C: stronger effect = lower value
Outline: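 Three-cell-type spheroids modelling solid tumor plus stroma served as the readout system; POL inhibitors were tested individually and in combination, concentration ranges set by clinical Cmax where known.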
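Note: spheroids exposed to compounds for 7 days before readout.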
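Throughout, for viability, T/C: 100% = DMSO vehicle control viability.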

Which results are given for `CCCS(=O)(=O)Nc1ccc(F)c(C(=O)c2c[nH]c3ncc(-c4ccc(Cl)cc4)cc23)c1F` + COC1C(OC(N)=O)C(O)C(Oc2ccc3c(O)c(NC(=O)c4ccc(O)c(CC=C(C)C)c4)c(=O)oc3c2C)OC1(C)C?
IC50 (second compound 0.0316 µM): > 10 µM; IC50 (second compound 0.1 µM): > 10 µM; IC50 (second compound 0.316 µM): > 10 µM; IC50 (second compound 1 µM): > 10 µM; IC50 (second compound 3.16 µM): > 10 µM; IC50 (second compound 10 µM): > 10 µM; viability, T/C (second compound 0.0316 µM, first compound 0.0316 µM): 110%; viability, T/C (second compound 0.0316 µM, first compound 0.1 µM): 98.7%; viability, T/C (second compound 0.0316 µM, first compound 0.316 µM): 106%; viability, T/C (second compound 0.0316 µM, first compound 1 µM): 105%; viability, T/C (second compound 0.0316 µM, first compound 3.16 µM): 102%; viability, T/C (second compound 0.0316 µM, first compound 10 µM): 104%; viability, T/C (second compound 0.1 µM, first compound 0.0316 µM): 82%; viability, T/C (second compound 0.1 µM, first compound 0.1 µM): 109%; viability, T/C (second compound 0.1 µM, first compound 0.316 µM): 97.5%; viability, T/C (second compound 0.1 µM, first compound 1 µM): 85.5%; viability, T/C (second compound 0.1 µM, first compound 3.16 µM): 129%; viability, T/C (second compound 0.1 µM, first compound 10 µM): 109%; viability, T/C (second compound 0.316 µM, first compound 0.0316 µM): 96.9%; viability, T/C (second compound 0.316 µM, first compound 0.1 µM): 94.9%; viability, T/C (second compound 0.316 µM, first compound 0.316 µM): 121%; viability, T/C (second compound 0.316 µM, first compound 1 µM): 130%; viability, T/C (second compound 0.316 µM, first compound 3.16 µM): 97.9%; viability, T/C (second compound 0.316 µM, first compound 10 µM): 108%; viability, T/C (second compound 1 µM, first compound 0.0316 µM): 105%; viability, T/C (second compound 1 µM, first compound 0.1 µM): 103%; viability, T/C (second compound 1 µM, first compound 0.316 µM): 121%; viability, T/C (second compound 1 µM, first compound 1 µM): 95.9%; viability, T/C (second compound 1 µM, first compound 3.16 µM): 105%; viability, T/C (second compound 1 µM, first compound 10 µM): 84.8%; viability, T/C (second compound 3.16 µM, first compound 0.0316 µM): 102%; viability, T/C (second compound 3.16 µM, first compound 0.1 µM): 124%; viability, T/C (second compound 3.16 µM, first compound 0.316 µM): 99.7%; viability, T/C (second compound 3.16 µM, first compound 1 µM): 105%; viability, T/C (second compound 3.16 µM, first compound 3.16 µM): 89.9%; viability, T/C (second compound 3.16 µM, first compound 10 µM): 97.6%; viability, T/C (second compound 10 µM, first compound 0.0316 µM): 94.2%; viability, T/C (second compound 10 µM, first compound 0.1 µM): 118%; viability, T/C (second compound 10 µM, first compound 0.316 µM): 95.2%; viability, T/C (second compound 10 µM, first compound 1 µM): 111%; viability, T/C (second compound 10 µM, first compound 3.16 µM): 113%; viability, T/C (second compound 10 µM, first compound 10 µM): 110%
